Experimental data: US20030118577A1, “Use of analogues of superoxide dismutase for treating hepatocellular insufficiencies” (priority 2000, published 2003)

What was measured:
[1] = test system: acute hepatic insufficiency induced by acetaminophen; experiment: Survival of mice after intraperitoneal acetaminophen (acute hepatic insufficiency); conditions: for percentage of surviving animals: Group XV: APAP 1000 mg/kg, CuDIPS 10 mg/kg (P)
Protocol: The intraperitoneal injection of acetaminophen into mice induces a severe hepatotoxicity, the degree of which may be evaluated by the survival of the animals, measuring transaminase activities, and macroscopic and microscopic examination of the livers.
The acetaminophen in solution at 100 mg/ml in PBS at pH 7.4 is administered by the intraperitoneal route.
In a first series of experiments, a group of mice received a dose of 1000 mg/kg of acetaminophen; a second group received a dose of 1000 mg/kg of acetaminophen and a dose of 10 mg/kg of MnTBAP administered either 2 h before the acetaminophen or 6 h after; a control group received either MnTBAP alone (10 mg/kg), or PBS alone.
The survival of the animals is monitored for 24 hours after the administration of acetaminophen.
The effect of N-acetyl-L-cysteine (NAC), of CuDIPS, and of MnTBAP on the survival of mice after intraperitoneal injection of 1000 mg/kg of acetaminophen (APAP) was compared.
MnTBAP, NAC, or CuDIPS are administered in the form of a bolus, preventively, 2 hours before (P) or, curatively, 6 hours after (C) the acetaminophen.
The survival of the animals is monitored for 24 hours after administration of acetaminophen.

[2] = test system: hepatic impairments resulting from the administration of galactosamine-LPS; conditions: prior administration; MIESEL et al. 1995; cited from earlier work
[3] = test system: hepatic impairments induced by the administration of acetaminophen or of galactosamine; conditions: simultaneous administration; EP 0333490; cited from earlier work

CC(C)c1cc(C(=O)[O-])c(O)c(C(C)C)c1.CC(C)c1cc(C(=O)[O-])c(O)c(C(C)C)c1.[Cu+2] [CuDIPS, Cu(II)-(diisopropylsalicylate)2]
effect on survival rate, administered preventively ([1]; APAP 1000 mg/kg, 2 hours before (P)): does not significantly increase the survival rate
percentage of surviving animals ([1]; time 0 h): 100%
percentage of surviving animals ([1]; time 6 h): 100%
percentage of surviving animals ([1]; time 8 h): 91.6%
percentage of surviving animals ([1]; time 9 h): 83.3%
percentage of surviving animals ([1]; time 10 h): 75%
percentage of surviving animals ([1]; time 11 h): 58.3%
percentage of surviving animals ([1]; time 12 h): 58.3%
percentage of surviving animals ([1]; time 13 h): 41.6%
percentage of surviving animals ([1]; time 14 h): 41.6%
percentage of surviving animals ([1]; time 15 h): 41.6%
percentage of surviving animals ([1]; time 16 h): 33.3%
percentage of surviving animals ([1]; time 17 h): 33.3%
percentage of surviving animals ([1]; time 18 h): 25%
percentage of surviving animals ([1]; time 20 h): 25%
percentage of surviving animals ([1]; time 22 h): 25%
percentage of surviving animals ([1]; time 24 h): 25%

C(=NCCCCN=Cc1ccccn1)c1ccccn1.[Cu+2].[O-][Cl+3]([O-])([O-])[O-] [CuPu(Py)2]
hepatic impairments [2]: reduced

CuZnSOD: copper-zinc superoxide dismutases, also known by the name superoxide dismutase-1
hepatic impairments [3]: reduced
